The subject of experiment [1] is aortic rings explants of wt mice (C57BL/6). The experiment is described as follows: Mouse aortic ring explant neovessel formation, wild-type mice. The experiment is classed as cell-based. The text has this: Thoracic aortas were removed from 2 months-old mice (C57BL/6 and Dp71-null mice) killed by CO2 asphyxiation and immediately transferred to a culture dish containing ice-cold endothelial cell basal medium (EGM-2; Cambrex Bioscience). The periaortic fibroadipose tissue was carefully removed with fine microdissecting forceps and scissors, paying special attention not to damage the aortic wall. One millimeters-long aortic rinaortic rings explants gs (15 per aorta from 12 mice) were sectioned and rinsed extensively in eight consecutive washes of EGM-2. The rings were then individually embedded in 48-well plates previously coated with 50 μl synthetic basement membrane (Matrigel; BD Bioscience) per well. After 1 hour, 500 μl EGM-2 was added to each well, and the cultures were incubated at 37° C. for 5 days. The culture medium was change each day. […] For all cell treatment, the final DMSO concentration was adjusted to 0.1%. The aortic rings were photographed on day 4 at ×2 magnification with a macroscope (Leica). The angiogenic response was determined by measuring the area of neovessel formation on computer (ImageJ or Photoshop software).

Experiment [2] deals with aortic rings explants of Dp71-null mice. The experiment is described as follows: Mouse aortic ring explant neovessel formation, Dp71-null mice. Type of experiment: cell-based. Set-up: dose or concentration left out as unconfirmed. The settings on record: same treatment with beta-nf, day 4. From the text: The Dp71-null mice strain was obtained by replacing, via homologous recombination, most of the first and unique exon of Dp71 and of a small part of the Dp71 first intron with a sequence encoding a β-gal-neomycine-(beta-gal) resistance chimeric protein (β-geo). This enabled to monitor with great sensitivity the activity of the promoter using X-gal staining (Sarig et al., 1999).
Thoracic aortas were removed from 2 months-old mice (C57BL/6 and Dp71-null mice) killed by CO2 asphyxiation and immediately transferred to a culture dish containing ice-cold endothelial cell basal medium (EGM-2; Cambrex Bioscience). The periaortic fibroadipose tissue was carefully removed with fine microdissecting forceps and scissors, paying special attention not to damage the aortic wall. One millimeters-long aortic rinaortic rings explants gs (15 per aorta from 12 mice) were sectioned and rinsed extensively in eight consecutive washes of EGM-2. The rings were then individually embedded in 48-well plates previously coated with 50 μl synthetic basement membrane (Matrigel; BD Bioscience) per well. After 1 hour, 500 μl EGM-2 was added to each well, and the cultures were incubated at 37° C. for 5 days. The culture medium was change each day. […] The angiogenic response was determined by measuring the area of neovessel formation on computer (ImageJ or Photoshop software).

In another experiment the test system is Dp71. To be noted: cited from earlier work.

As for `O=c1cc(-c2ccccc2)oc2ccc3ccccc3c12` [beta-nf, beta-naphtoflavone], the “inhibition of neovessel formation” value in experiment [1] (explants of wt mice, beta-nf in 0.1% DMSO, area of neovessel formation on day 4, P<0.001) is 50%. For the same compound, the “neoangiogenesis in aortic rings explants (in words)” value in experiment [1] (wild mice strain expressing Dp71) was “inhibition of neoangiogenesis”. Moreover, in experiment [2], the “effect on neovessel formation” value was “without effect”. Further, the Dp71 expression entry in the experiment with Dp71 is on record as “inhibits Dp71 expression”.

The record behind these values is patent US8603964B2, “Methods for modulating angiogenesis via dystrophin Dp71” (Institut National de la Sante et de la Recherche Medicale …, priority 2008, dated 2013).
